As usually defined, the TGI is the concentration at which net growth stops. A higher TGI goes with less potent growth arrest.

Several values for one entry are separate records, joined by “and”; a condition that tells them apart may be missing. Equal entries are not always repeated.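 Step 1: Grow cells in 96-well plates. Step 2: Expose to compound for 48 hours at 5 concentrations. Step 3: Interpolate endpoints linearly; if unreached, use highest concentration. TGI marks complete inhibition of growth.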

These results are taken from PubChem BioAssay (NCI).

Some test systems named below: ACHN renal; K-562 leukemia; 786-0 renal; HOP-92 NSCLC; NCI/ADR-RES ovarian; UO-31 renal; HOP-62 NSCLC; MDA-MB-231 breast; OVCAR-5 ovarian; MDA-N; RXF 393 renal.
What all share (assay): DTP human tumour cell line panel, 48 h

As to `O=CCCCCCOCc1ccccc1`, the TGI in the test on ACHN renal is more than 100 µM; with K-562 leukemia it was more than 31.7 µM; with 786-0 renal it was 68.1 µM; in the test with HOP-92 NSCLC, more than 100 µM; with NCI/ADR-RES ovarian, more than 100 µM; in the test with UO-31 renal it was more than 100 µM. For the same molecule, the total growth inhibition concentration (TGI) in the test with HOP-62 NSCLC was 79.9 µM; in the test on MDA-MB-231 breast, more than 100 µM; in the test with OVCAR-5 ovarian, more than 100 µM; in the test on MDA-N it was more than 100 µM; with RXF 393 renal, more than 100 µM.

Regarding `CC1OC(OC2C(O[C@H]3CC[C@@]4(C)C(=CC[C@H]5[C@@H]6C[C@@H]7O[C@]8(CC[C@@H](C)CO8)[C@@H](C)[C@@H]7[C@@]6(C)CC[C@@H]54)C3)OC(CO)C(O)C2OC2OC(CO)C(O)C(O)C2O)C(O)C(O)C1O` (some centres not stated), the TGI in the test on ACHN renal was 3.29 µM; in the test with K-562 leukemia, more than 100 µM; with 786-0 renal, 2.97 µM; in the test with HOP-92 NSCLC, 3.68 µM; with NCI/ADR-RES ovarian, 4.93 µM; in the test with UO-31 renal, 3.5 µM. The TGI is 4.21 µM in the test on HOP-62 NSCLC; 2.98 µM in the test on MDA-MB-231 breast; more than 20.6 µM with OVCAR-5 ovarian; 3.17 µM in the test on MDA-N; 4.43 µM with RXF 393 renal.

For the molecule `CC(=O)NC1C(OCc2ccccc2)OC(CO)C(O)C1OC(C)C(=O)N[C@@H](C)C(=O)N[C@H](CCC(=O)NCCNCCNc1c2ccccc2nc2cccc([N+](=O)[O-])c12)C(N)=O` (some centres not stated), the total growth inhibition concentration (TGI) in the test on ACHN renal is 0.512 µM; in the test with K-562 leukemia, more than 100 µM; in the test with 786-0 renal, 0.921 µM; with HOP-92 NSCLC, 0.169 µM; in the test with NCI/ADR-RES ovarian, 10.6 µM; in the test on UO-31 renal, 0.607 µM. Further, the total growth inhibition concentration (TGI) in the test with HOP-62 NSCLC was 5.17 µM; in the test on MDA-MB-231 breast, 0.639 µM; with OVCAR-5 ovarian, 5.19 µM; in the test with MDA-N, 0.305 µM; in the test with RXF 393 renal, 0.0844 µM.

For `Cn1/c(=N\N=C2\C=C3CCCCC3(C)CC2)sc2ccccc21` (configuration not stated), the TGI with ACHN renal, in the test with K-562 leukemia, in the test with 786-0 renal, with HOP-92 NSCLC, in the test on NCI/ADR-RES ovarian and in the test with UO-31 renal was more than 100 µM throughout. Further, the TGI in the test on HOP-62 NSCLC, with MDA-MB-231 breast, with OVCAR-5 ovarian, with MDA-N and in the test with RXF 393 renal was more than 100 µM each time.

Regarding `COc1cc2c[n+]3c4c(c2c(OC)c1OC)CCCC4CC3` (configuration not stated), the TGI with ACHN renal, in the test on K-562 leukemia, in the test with 786-0 renal, in the test on HOP-92 NSCLC, with NCI/ADR-RES ovarian and with UO-31 renal was more than 100 µM throughout. The total growth inhibition concentration (TGI) in the test on HOP-62 NSCLC, with MDA-MB-231 breast, in the test on OVCAR-5 ovarian, in the test on MDA-N and in the test with RXF 393 renal was more than 100 µM throughout.

`COC(=O)c1sc(=O)sc1SCc1cccc(CSc2sc(=O)sc2C(=O)OC)c1`: the concentration for total growth inhibition (TGI) with ACHN renal was more than 100 µM; in the test on K-562 leukemia it was more than 100 µM; in the test on 786-0 renal, 31.4 µM; with HOP-92 NSCLC, 95.6 µM; in the test on NCI/ADR-RES ovarian, more than 100 µM; in the test on UO-31 renal it was more than 100 µM. For the same molecule, the total growth inhibition concentration (TGI) was 35.7 µM in the test on HOP-62 NSCLC; 67.4 µM in the test on MDA-MB-231 breast; more than 100 µM in the test on OVCAR-5 ovarian; more than 100 µM in the test with MDA-N; 73.2 µM with RXF 393 renal.

As to `Clc1ccc2c(c1)N(CCCN1CCCC13CCCCC3)c1ccccc1S2`, the TGI in the test on ACHN renal is 47.5 µM; in the test on K-562 leukemia, 21.6 µM; with 786-0 renal, 23.7 µM; in the test with HOP-92 NSCLC, 38.2 µM; with NCI/ADR-RES ovarian, 44.5 µM; in the test with UO-31 renal, 22.4 µM. For the same molecule, the TGI came to 33.4 µM in the test on HOP-62 NSCLC; 21.5 µM in the test on MDA-MB-231 breast; 36.3 µM in the test with OVCAR-5 ovarian; 26.2 µM in the test on MDA-N; 17.6 µM in the test with RXF 393 renal.

On to `ClC1=NN=C(c2c[nH]c3ccccc23)CC1NCc1ccccc1` (configuration not stated), for which the TGI with ACHN renal, in the test on K-562 leukemia, with 786-0 renal, with HOP-92 NSCLC, in the test on NCI/ADR-RES ovarian and in the test on UO-31 renal was more than 100 µM in each case. In addition, the total growth inhibition concentration (TGI) with HOP-62 NSCLC, in the test on MDA-MB-231 breast, with OVCAR-5 ovarian, with MDA-N and in the test on RXF 393 renal was more than 100 µM throughout.

On to `COC1(CC[C@@H](C)COC2OC(CO)C(O)C(O)C2O)OC2C[C@H]3[C@@H]4CC[C@H]5C[C@@H](OC6OC(CO)C(OC7OC(CO)C(O)C(O)C7O)C(O)C6OC6OC(C)C(O)C(O)C6O)[C@H](O)C[C@]5(C)[C@H]4CC[C@]3(C)C2[C@@H]1C` (some centres not stated), for which the TGI in the test with ACHN renal was 3.33 µM; in the test with K-562 leukemia, 7.81 µM; in the test with 786-0 renal, 4.04 µM; with HOP-92 NSCLC, 12.8 µM; with NCI/ADR-RES ovarian it was more than 20.6 µM; in the test with UO-31 renal it was 3.31 µM. Further, the total growth inhibition concentration (TGI) is 3.69 µM in the test with HOP-62 NSCLC; 3.66 µM in the test on MDA-MB-231 breast; 4.57 µM with OVCAR-5 ovarian; 4.55 µM in the test on MDA-N; 3.85 µM in the test with RXF 393 renal.

`COC(=O)C1OC(O[C@H]2CC[C@]3(C)[C@H]4CC=C5[C@@H]6CC(C)(C)CC[C@]6(C(=O)OC6OCC(O)C(O)C6OC6OC(C)C(OC7OCC(O)C(O)C7O)C(O)C6O)[C@H](O)C[C@@]5(C)[C@]4(C)CC[C@H]3C2(C)C)C(O)C(O)C1O` (some centres not stated): the TGI is 14.6 µM and 14.9 µM with ACHN renal; more than 100 µM in the test with K-562 leukemia; 19 µM and 21.8 µM in the test on 786-0 renal; 5.2 µM and 8.4 µM with HOP-92 NSCLC; 22.5 µM and 12.3 µM in the test with NCI/ADR-RES ovarian; 3.54 µM and 5.18 µM in the test with UO-31 renal. The TGI is 17.8 µM and 22.9 µM in the test with HOP-62 NSCLC; 7.48 µM and 4.39 µM with MDA-MB-231 breast; 15.8 µM and 19.4 µM in the test on OVCAR-5 ovarian; 3.77 µM and 12.1 µM in the test on MDA-N; 29 µM and 31.2 µM with RXF 393 renal.

Consider `COc1ccc(-c2ccc(C(=O)C=P(c3ccccc3)(c3ccccc3)c3ccccc3)cc2)cc1`, for which the concentration for total growth inhibition (TGI) was determined as 30.7 µM in the test on ACHN renal; 20.6 µM with K-562 leukemia; 37.5 µM in the test on 786-0 renal; 34 µM in the test with HOP-92 NSCLC; 37.5 µM in the test on NCI/ADR-RES ovarian; 13 µM in the test with UO-31 renal. Moreover, the total growth inhibition concentration (TGI) in the test on HOP-62 NSCLC was 43.9 µM; in the test on MDA-MB-231 breast it was 30.7 µM; in the test with OVCAR-5 ovarian, 44.8 µM; in the test on MDA-N, 28.9 µM; in the test on RXF 393 renal, 27 µM.

Consider `CC(C)(C)C(=O)Nc1c(C=O)ccc2[nH]cnc12`, for which the TGI with ACHN renal, with K-562 leukemia, in the test with 786-0 renal, in the test on HOP-92 NSCLC, in the test on NCI/ADR-RES ovarian and in the test with UO-31 renal was more than 100 µM in each case. Moreover, the TGI in the test on HOP-62 NSCLC, with MDA-MB-231 breast, in the test on OVCAR-5 ovarian, with MDA-N and in the test with RXF 393 renal was more than 100 µM throughout.

For the molecule `CCc1nc(N)c2nc(-c3cccs3)oc2n1`, the TGI in the test with ACHN renal, in the test with K-562 leukemia, with 786-0 renal, in the test on HOP-92 NSCLC, in the test on NCI/ADR-RES ovarian and with UO-31 renal was more than 100 µM throughout. Also, the concentration for total growth inhibition (TGI) with HOP-62 NSCLC, in the test with MDA-MB-231 breast, in the test on OVCAR-5 ovarian, in the test on MDA-N and in the test with RXF 393 renal was more than 100 µM throughout.

`CC(=O)CC1(CBr)Nc2ccc([N+](=O)[O-])cc2NC1=O` (configuration not stated): the concentration for total growth inhibition (TGI) in the test on ACHN renal, in the test with K-562 leukemia, in the test on 786-0 renal, with HOP-92 NSCLC, with NCI/ADR-RES ovarian and in the test with UO-31 renal was more than 100 µM in each case. Further, the TGI in the test with HOP-62 NSCLC, in the test with MDA-MB-231 breast, with OVCAR-5 ovarian, in the test on MDA-N and in the test on RXF 393 renal was more than 100 µM throughout.

For the molecule `O=P1(N(CCCl)CCCl)Oc2ccc(Cl)cc2C(C(Cl)(Cl)Cl)c2cc(Cl)ccc2O1` (configuration not stated), the concentration for total growth inhibition (TGI) in the test with ACHN renal was more than 100 µM; in the test on K-562 leukemia it was more than 100 µM; in the test with 786-0 renal it was 30.7 µM; in the test on HOP-92 NSCLC, 40.4 µM; with NCI/ADR-RES ovarian it was more than 100 µM; in the test with UO-31 renal, more than 100 µM. For the same molecule, the total growth inhibition concentration (TGI) is 27.9 µM in the test on HOP-62 NSCLC; 44.4 µM in the test on MDA-MB-231 breast; more than 100 µM with OVCAR-5 ovarian; 87.7 µM with MDA-N; 29.3 µM with RXF 393 renal.

As for `CCCCCC[C@H]([C@H](C)O)n1cnc2c(N)ncnc21`, the total growth inhibition concentration (TGI) in the test with ACHN renal, in the test on K-562 leukemia, with 786-0 renal, with HOP-92 NSCLC, in the test with NCI/ADR-RES ovarian and in the test on UO-31 renal was more than 100 µM in each case. Also, the TGI with HOP-62 NSCLC, with MDA-MB-231 breast, in the test with OVCAR-5 ovarian, in the test with MDA-N and in the test with RXF 393 renal was more than 100 µM in each case.

Regarding `Clc1ccc2c(NCCCCCCNc3ccnc4cc(Cl)ccc34)ccnc2c1`, the concentration for total growth inhibition (TGI) in the test on ACHN renal amounted to 8.91 µM; with K-562 leukemia it was 4.98 µM; with 786-0 renal, 4.15 µM; with HOP-92 NSCLC, 5.8 µM; with NCI/ADR-RES ovarian, 27.9 µM; in the test with UO-31 renal it was 10.6 µM. Moreover, the concentration for total growth inhibition (TGI) in the test on HOP-62 NSCLC came out at 13.8 µM; in the test on MDA-MB-231 breast it was 10.2 µM; in the test on OVCAR-5 ovarian it was 17.9 µM; in the test with MDA-N, 8.86 µM; with RXF 393 renal, 6.35 µM.
